Experiments:
Vero [1] = assay: Antiproliferative activity against African green monkey Vero cells at 50 ug/ml after 24 hrs by BrdUrd incorporation assay; type: cell-based; settings: chlorocebus sabaeus
[2] = Antiproliferative activity against African green monkey Vero cells at 50 ug/ml after 48 hrs by BrdUrd incorporation assay; type: cell-based; settings: chlorocebus sabaeus, read-out: GI
[3] = Antiproliferative activity against African green monkey Vero cells at 50 ug/ml after 72 hrs by BrdUrd incorporation assay; type: cell-based; settings: chlorocebus sabaeus, read-out: GI
A549 [4] = assay: Antiproliferative activity against human A549 cells at 50 ug/ml after 24 hrs by BrdUrd incorporation assay; type: functional; settings: A549, 24 h, read-out: GI
A549 [5] = assay: Antiproliferative activity against human A549 cells at 50 ug/ml after 48 hrs by BrdUrd incorporation assay; type: functional; settings: A549, 48 h, read-out: GI
A549 [6] = assay: Antiproliferative activity against human A549 cells at 50 ug/ml after 72 hrs by BrdUrd incorporation assay; type: functional; settings: A549, 72 h, read-out: GI
HeLa [7] = assay: Antiproliferative activity against human HeLa cells at 50 ug/ml after 24 hrs by BrdUrd incorporation assay; type: functional; settings: read-out: GI
HeLa [8] = assay: Antiproliferative activity against human HeLa cells at 50 ug/ml after 48 hrs by BrdUrd incorporation assay; type: functional; settings: read-out: GI
HeLa [9] = assay: Antiproliferative activity against human HeLa cells at 50 ug/ml after 72 hrs by BrdUrd incorporation assay; type: functional; settings: read-out: GI
T47D [10] = assay: Antiproliferative activity against human T47D cells at 50 ug/ml after 24 hrs by BrdUrd incorporation assay; type: functional; settings: read-out: GI
T47D [11] = assay: Antiproliferative activity against human T47D cells at 50 ug/ml after 48 hrs by BrdUrd incorporation assay; type: functional; settings: read-out: GI
T47D [12] = assay: Antiproliferative activity against human T47D cells at 50 ug/ml after 72 hrs by BrdUrd incorporation assay; type: functional; settings: read-out: GI
TOV112D [13] = assay: Antiproliferative activity against human TOV112D cells at 50 ug/ml after 24 hrs by BrdUrd incorporation assay; type: functional; settings: read-out: GI
TOV112D [14] = assay: Antiproliferative activity against human TOV112D cells at 50 ug/ml after 48 hrs by BrdUrd incorporation assay; type: functional; settings: read-out: GI
TOV112D [15] = assay: Antiproliferative activity against human TOV112D cells at 50 ug/ml after 72 hrs by BrdUrd incorporation assay; type: functional; settings: read-out: GI
Vero [16] = assay: Antiproliferative activity against African green monkey Vero cells after 24 hrs by BrdUrd incorporation assay; type: cell-based; settings: chlorocebus sabaeus
Vero [17] = assay: Antiproliferative activity against African green monkey Vero cells after 48 hrs by BrdUrd incorporation assay; type: cell-based; settings: Chlorocebus sabaeus
Vero [18] = assay: Antiproliferative activity against African green monkey Vero cells after 72 hrs by BrdUrd incorporation assay; type: cell-based; settings: Chlorocebus sabaeus
A549 [19] = assay: Antiproliferative activity against human A549 cells after 24 hrs by BrdUrd incorporation assay; type: functional, cell-based; settings: A549, 24 h
A549 [20] = assay: Antiproliferative activity against human A549 cells after 48 hrs by BrdUrd incorporation assay; type: functional, cell-based; settings: A549, 48 h
A549 [21] = assay: Antiproliferative activity against human A549 cells after 72 hrs by BrdUrd incorporation assay; type: functional, cell-based; settings: A549, 72 h
HeLa [22] = assay: Antiproliferative activity against human HeLa cells after 24 hrs by BrdUrd incorporation assay; type: functional, cell-based
HeLa [23] = assay: Antiproliferative activity against human HeLa cells after 48 hrs by BrdUrd incorporation assay; type: functional, cell-based
HeLa [24] = assay: Antiproliferative activity against human HeLa cells after 72 hrs by BrdUrd incorporation assay; type: functional, cell-based
T47D [25] = assay: Antiproliferative activity against human T47D cells after 24 hrs by BrdUrd incorporation assay; type: functional, cell-based
T47D [26] = assay: Antiproliferative activity against human T47D cells after 48 hrs by BrdUrd incorporation assay; type: functional, cell-based
T47D [27] = assay: Antiproliferative activity against human T47D cells after 72 hrs by BrdUrd incorporation assay; type: functional, cell-based
TOV112D [28] = assay: Antiproliferative activity against human TOV112D cells after 24 hrs by BrdUrd incorporation assay; type: functional, cell-based
TOV112D [29] = assay: Antiproliferative activity against human TOV112D cells after 48 hrs by BrdUrd incorporation assay; type: functional, cell-based
TOV112D [30] = assay: Antiproliferative activity against human TOV112D cells after 72 hrs by BrdUrd incorporation assay; type: functional, cell-based

| Structure (SMILES) | growth inhibition (GI) (Vero [1]) [%] | inhibition at 48 h, 50 ug/ml [2] [%] | inhibition at 72 h, 50 ug/ml [3] [%] | inhibition of growth at 50 µg/mL (A549 [4]) [%] | inhibition of growth at 50 µg/mL (A549 [5]) [%] | inhibition of growth at 50 µg/mL (A549 [6]) [%] | inhibition of growth at 50 µg/mL (HeLa [7]) [%] | inhibition of growth at 50 µg/mL (HeLa [8]) [%] | inhibition of growth at 50 µg/mL (HeLa [9]) [%] | inhibition of growth at 50 µg/mL (T47D [10]) [%] | inhibition of growth at 50 µg/mL (T47D [11]) [%] | inhibition of growth at 50 µg/mL (T47D [12]) [%] | inhibition of growth at 50 µg/mL (TOV112D [13]) [%] | inhibition of growth at 50 µg/mL (TOV112D [14]) [%] | inhibition of growth at 50 µg/mL (TOV112D [15]) [%] | IC50 (Vero [16]) [µM] | IC50 (Vero [17]) [µM] | IC50 (Vero [18]) [µM] | IC50 (A549 [19]) [µM] | IC50 (A549 [20]) [µM] | other results |
| --- | --- | --- | --- | --- | --- | --- | --- | --- | --- | --- | --- | --- | --- | --- | --- | --- | --- | --- | --- | --- | --- |
| O=c1c(-c2cccs2)nnc2n1CCN2c1ccc(Cl)cc1 | 25 | 60 | 90 | 80 | 90 | 100 | 50 | 90 | 100 | 90 | 100 | 100 | 75 | 90 | 100 | > 150 | 130 | 80 | 90 | 80 | IC50 (A549 [21]): 80 µM; IC50 (HeLa [22]): 150 µM; IC50 (HeLa [23]): 80 µM; IC50 (HeLa [24]): 80 µM; IC50 (T47D [25]): 80 µM; IC50 (T47D [26]): 80 µM; IC50 (T47D [27]): 80 µM; IC50 (TOV112D [28]): 100 µM; IC50 (TOV112D [29]): 80 µM; IC50 (TOV112D [30]): 80 µM |
| O=c1c(-c2cccs2)nnc2n1CCN2c1ccccc1 | 50 | 75 | 90 | 80 | 90 | 100 | 70 | 100 | 100 | 95 | 100 | 100 | 90 | 100 | 100 | 170 | 110 | 90 | 110 | 90 | IC50 (A549 [21]): 80 µM; IC50 (HeLa [22]): 120 µM; IC50 (HeLa [23]): 90 µM; IC50 (HeLa [24]): 80 µM; IC50 (T47D [25]): 90 µM; IC50 (T47D [26]): 90 µM; IC50 (T47D [27]): 80 µM; IC50 (TOV112D [28]): 90 µM; IC50 (TOV112D [29]): 80 µM; IC50 (TOV112D [30]): 80 µM |
| Cc1ccccc1N1CCn2c1nnc(-c1cccs1)c2=O | 25 | 50 | 90 | 80 | 95 | 100 | 45 | 75 | 90 | 80 | 90 | 100 | 90 | 100 | 100 | > 160 | 160 | 90 | 100 | 80 | IC50 (A549 [21]): 80 µM; IC50 (HeLa [22]): > 160 µM; IC50 (HeLa [23]): 110 µM; IC50 (HeLa [24]): 90 µM; IC50 (T47D [25]): 100 µM; IC50 (T47D [26]): 90 µM; IC50 (T47D [27]): 80 µM; IC50 (TOV112D [28]): 90 µM; IC50 (TOV112D [29]): 80 µM; IC50 (TOV112D [30]): 80 µM |
| Cc1ccc(N2CCn3c2nnc(-c2cccs2)c3=O)cc1 | 90 | 95 | 100 | 90 | 95 | 100 | 80 | 100 | 100 | 95 | 100 | 100 | 90 | 100 | 100 | 90 | 80 | 80 | 90 | 90 | IC50 (A549 [21]): 80 µM; IC50 (HeLa [22]): 100 µM; IC50 (HeLa [23]): 80 µM; IC50 (HeLa [24]): 80 µM; IC50 (T47D [25]): 90 µM; IC50 (T47D [26]): 80 µM; IC50 (T47D [27]): 80 µM; IC50 (TOV112D [28]): 90 µM; IC50 (TOV112D [29]): 80 µM; IC50 (TOV112D [30]): 80 µM |
| O=c1c(-c2cccs2)nnc2n1CCN2c1cccc(Cl)c1 | 100 | 100 | 100 | 90 | 100 | 100 | 90 | 100 | 100 | 100 | 100 | 100 | 90 | 100 | 100 | 80 | 80 | 80 | 80 | 80 | IC50 (A549 [21]): 80 µM; IC50 (HeLa [22]): 80 µM; IC50 (HeLa [23]): 80 µM; IC50 (HeLa [24]): 80 µM; IC50 (T47D [25]): 80 µM; IC50 (T47D [26]): 80 µM; IC50 (T47D [27]): 80 µM; IC50 (TOV112D [28]): 80 µM; IC50 (TOV112D [29]): 80 µM; IC50 (TOV112D [30]): 80 µM |

— ChEMBL document CHEMBL3596165, “Synthesis, structure elucidation and identification of antiproliferative activities of a novel class of thiophene bioisosteres bearing the privileged 7,8-dihydroimidazo[2,1-c][1,2,4]triazin-4(6H)-one scaffold” (Bioorg Med Chem, 2015)
